# Columns and labels:
# [1] = test system: 356 CRISPRi constructs in E. coli ΔtolC-pore; assay: CRISPRi collection fitness screen with sub-inhibitory compound; format: cell-based; conditions: for Growth, mean colony biomass (n=4): +250 ng/ml Vancomycin
# From the text: To that end, we screened the E. coli CRISPRi collection in the ΔtolC-pore genetic background with a sub-inhibitory concentration of MAC-0452936 and measured the fitness of all 356 CRISPRi mutants (Figure 4C and Data S4). […] To that end, we introduced either an arabinose inducible copy of lgt supplied on the pCHAP9231 plasmid[48] or the pBAD19s plasmid as a control into E. coli ΔtolC-pore and tested the potency of MAC-0452936 (Figure 4E). […] To test this hypothesis, we constructed E. coli ΔlgtΔtolC-pore with pCHAP9231[48] so that lgt expression was driven solely by arabinose from the plasmid.
# For screens of the CRISPRi collection with MAC-0452936, the mobile CRISPRi collection was first conjugated into E. coli ΔtolC-pore as previously described.[30] The CRISPRi collection was then arrayed on solid agar at 1536 density using the Singer-ROTOR, such that each CRISPRi strain is arrayed in technical quadruplicate. […] The screens were conducted without CRISPRi induction, using just the 5–10% basal knockdown from the pFD152 CRISPRi plasmid. Following overnight growth, plates were imaged using high-resolution scanners (Epson Perfection v750), and colony biomass for each mutant was determined.
# [2] = test system: E. coli ΔtolC-pore harboring CRISPRi plasmids targeting lgt; assay: CRISPRi lgt knockdown MIC (low-copy enhancement); format: cell-based; conditions: two gRNAs targeting lgt, 100 ng/mL aTc
# From the text: We next turned to genetic approaches to confirm the mechanism of action of MAC-0452936. […] To that end, we screened the E. coli CRISPRi collection in the ΔtolC-pore genetic background with a sub-inhibitory concentration of MAC-0452936 and measured the fitness of all 356 CRISPRi mutants (Figure 4C and Data S4). […] Depletion of Lgt by CRISPRi provided supporting evidence that MAC-0452936 targeted Lgt in E. coli; however, we sought to confirm this observation using a parallel genetic approach. We hypothesized that MAC-0452936 potency would also be affected by high-copy expression of lgt. To that end, we introduced either an arabinose inducible copy of lgt supplied on the pCHAP9231 plasmid[48] or the pBAD19s plasmid as a control into E. coli ΔtolC-pore and tested the potency of MAC-0452936 (Figure 4E). Induction of lgt expression with arabinose suppressed the activity of MAC-0452936 by about 8-fold. […] To test this hypothesis, we constructed E. coli ΔlgtΔtolC-pore with pCHAP9231[48] so that lgt expression was driven solely by arabinose from the plasmid. […] To test this observation with MAC-0452936, we introduced an lpp deletion into our screening strain E. coli ΔtolC-pore and assessed the activity of our Lgt inhibitor in this mutant background. […]
structure (smiles),measurement,setting,value
CN[C@H](CC(C)C)C(=O)N[C@H]1C(=O)N[C@@H](CC(N)=O)C(=O)N[C@H]2C(=O)N[C@H]3C(=O)N[C@H](C(=O)N[C@H](C(=O)O)c4cc(O)cc(O)c4-c4cc3ccc4O)[C@H](O)c3ccc(c(Cl)c3)Oc3cc2cc(c3O[C@@H]2O[C@H](CO)[C@@H](O)[C@H](O)[C@H]2O[C@H]2C[C@](C)(N)[C@H](O)[C@H](C)O2)Oc2ccc(cc2Cl)[C@H]1O [Vancomycin],"Growth, mean colony biomass (n=4)",[1]; gRNA asnS,0.957
same,Growth represented as mean colony biomass,"[1]; gRNA cdsA, 1μg/ml MAC0452936, 6ng/ml LolCDE-in-1, 250 ng/ml Vancomycin, 7 ng/ml CHIR090, n=4",1.2659
same,"Growth, mean colony biomass (n=4)",[1]; gRNA csrA,0.9477
same,"Growth, mean colony biomass (n=4)",[1]; gRNA dnaC,1.003
same,"Growth, mean colony biomass (n=4)",[1]; gRNA dut,1.0326
same,"Growth, mean colony biomass (n=4)",[1]; gRNA folA,1.027
same,"Growth, mean colony biomass (n=4)",[1]; gRNA folC,1.033
same,"Growth, mean colony biomass (n=4)",[1]; gRNA ftsA,0.9398
same,"Growth, mean colony biomass (n=4)",[1]; gRNA glmS,1.002
same,"Growth, mean colony biomass (n=4)",[1]; gRNA hemD,1.042
same,"Growth, mean colony biomass (n=4)",[1]; gRNA lexA,1.232
same,"Growth, mean colony biomass (n=4)",[1]; gRNA mnmA,1.044
same,"Growth, mean colony biomass (n=4)",[1]; gRNA msbA,1.015
same,"Growth, mean colony biomass (n=4)",[1]; gRNA mukF,1.002
same,"Growth, mean colony biomass (n=4)",[1]; gRNA nadK,0.9893
same,"Growth, mean colony biomass (n=4)",[1]; gRNA prmC,1.009
same,"Growth, mean colony biomass (n=4)",[1]; gRNA pssA,0.9581
same,"Growth, mean colony biomass (n=4)",[1]; gRNA ptsI,1.038
same,"Growth, mean colony biomass (n=4)",[1]; gRNA ribD,1.045
same,"Growth, mean colony biomass (n=4)",[1]; gRNA rne,1.0315
same,"Growth, mean colony biomass (n=4)",[1]; gRNA rplA,0.9936
same,"Growth, mean colony biomass (n=4)",[1]; gRNA rplX,1.03
same,"Growth, mean colony biomass (n=4)",[1]; gRNA rpmC,1.003
same,"Growth, mean colony biomass (n=4)",[1]; gRNA rpoE,1.036
same,"Growth, mean colony biomass (n=4)",[1]; gRNA rpsG,1.014
same,"Growth, mean colony biomass (n=4)",[1]; gRNA rpsK,0.9986
same,"Growth, mean colony biomass (n=4)",[1]; gRNA rpsR,0.9771
same,"Growth, mean colony biomass (n=4)",[1]; gRNA rpsT,1.039
same,"Growth, mean colony biomass (n=4)",[1]; gRNA suhB,0.9724
same,"Growth, mean colony biomass (n=4)",[1]; gRNA tsaE,0.9903
same,"Growth, mean colony biomass (n=4)",[1]; gRNA ygeN,0.9481
same,"Growth, mean colony biomass (n=4)",[1]; gRNA yqeL,1.455
same,"Growth, mean colony biomass (n=4)",[1]; gRNA zipA,1.731
same,growth defect of the lgt CRISPRi mutant in the presence of compound,"[1]; sub-inhibitory (¼ MIC) concentration, LB agar, basal knockdown",did not demonstrate a growth defect
same,sensitization upon depletion of Lgt with CRISPRi constructs,[2],not to either of the negative control antibiotics

# From paper PMC11456916, “A screen for cell envelope stress uncovers an inhibitor of prolipoprotein diacylglyceryl transferase, Lgt, in Escherichiacoli” (iScience, 2024)
